Test results as given in patent US8329675B2, “Inhibitors of fatty acid amide hydrolase” (Infinity Pharmaceuticals, Inc., priority 2006, dated 2012).

What follows are compounds tested against T1, human FAAH (Homo sapiens, UniProt O00519) (assay: Human FAAH biochemical inhibition assay (AMC arachidonoyl amide fluorescence)). Conditions: Table 2, human FAAH (no asterisk); read-out: Activity (Ki).
T1 construct: host or cells: COS-7 cells, transient transfection; 13,000 g membrane fraction solubilised in 1% Triton X-100
T1 sequence (O00519 1-579): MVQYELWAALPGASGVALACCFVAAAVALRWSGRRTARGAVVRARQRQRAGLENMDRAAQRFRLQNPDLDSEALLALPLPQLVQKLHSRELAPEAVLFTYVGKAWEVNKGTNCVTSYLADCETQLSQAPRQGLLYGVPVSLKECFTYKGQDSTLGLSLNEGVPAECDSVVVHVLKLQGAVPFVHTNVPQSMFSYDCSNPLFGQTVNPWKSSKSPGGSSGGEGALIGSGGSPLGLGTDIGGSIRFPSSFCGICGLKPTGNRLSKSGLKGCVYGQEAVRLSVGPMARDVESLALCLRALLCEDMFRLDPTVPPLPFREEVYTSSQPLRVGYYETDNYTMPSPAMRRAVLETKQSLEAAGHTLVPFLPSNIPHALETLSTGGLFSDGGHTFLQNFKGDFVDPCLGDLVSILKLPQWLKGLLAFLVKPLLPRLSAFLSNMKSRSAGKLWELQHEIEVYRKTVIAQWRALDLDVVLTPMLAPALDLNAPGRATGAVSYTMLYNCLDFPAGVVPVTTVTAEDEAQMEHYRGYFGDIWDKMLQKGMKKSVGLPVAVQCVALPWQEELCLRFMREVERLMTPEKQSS
Procedure: The resulting solution is added into one dish of 30-40% confluent COS-7 cells in a drop-wise manner. The COS-7 cell dish is subsequently incubated for 48 hours. The cells are then harvested.
Harvest procedure: Media was aspirated from the dishes and the cells rinsed with 10 mL PBS. The PBS was removed and 3 mLs of PBS added to the dish. The dish was scraped to resuspend the cells, and the subsequent cell suspension collected into a 15 ml conical tube. The cells were pelleted by centrifugation at 1200 rpm for 5 minutes in a bench top centrifuge. PBS was removed and the cell pellet snap frozen in liquid nitrogen, store at −80 C.
The pellets were dounce homogenized and then sonicated to produce cell extract. The cell extract was subsequently centrifuged at 1000 g to remove cellular debris. The pellet was discarded and the supernatant centrifuged at 13,000 g for 20 minutes. The pellet contained membrane bound FAAH. The supernatant was discarded and the pellet resolubilized.
(2) Re-solubilization: The fraction of interest, (13,000 g, membrane fraction) was re-suspended in re-suspension buffer (20 mM Hepes pH 7.8, 10% v/v Glycerol, 1 mM EDTA, 1% Triton X-100) (2.3 mL re-suspension and the sample incubated on ice for 1 hour and then centrifuged to at 13,000 g remove any particulate matter. The supernatant containing solubilized human FAAH was aliquoted and snap frozen in liquid nitrogen and stored at −80° C. until use.
FAAH reaction buffer: 50 mM Hepes (pH 7.5), 1 mM EDTA, 0.2% Triton X-100.
Human FAAH assay; Experimental Protocol: A 0.1 mg/mL Human FAAH solution is made up in FAAH reaction buffer, and 24 ul pipetted into a 384 well plate. To this is added 1 uL of a 3 fold serially diluted inhibitor from a DMSO stock solution. The FAAH solution and inhibitor are incubated for 30 minutes at room temperature. The FAAH reaction is initiated by the addition of 25 uL of 40 uM AMC Arachidonoyl Amide in FAAH reaction buffer, yielding a final reaction human FAAH preparation concentration of 0.05 mg/ml and AMC-Arachidonoyl substrate concentration of 20 uM, reaction volume 50 uL. The reaction is allowed to proceed for 4 hours at room temperature. […] The microtiter plate in read in the envision plate reader.

Row | Compound | Ki
1 | O=C1c2ccccc2C(=O)N1Cc1ccc(B(O)O)cc1 [II-14] | 10 to 100 nM
2 | OB(O)c1ccc(OCCc2cccc(OCCCc3ccccc3)c2)cc1F [II-17] | < 10 nM
3 | CCCCOc1cccc(CCOc2ccc(B(O)O)c(F)c2)c1 [II-18] | < 10 nM
4 | OB(O)c1ccc(-c2cccc(F)c2)c(Cl)c1 [II-20] | 10 to 100 nM
5 | CCCCCC(=O)Nc1cccc(CCOc2ccc(B(O)O)c(F)c2)c1 [II-21] | < 10 nM
6 | CN(C)CCCC(=O)Nc1cccc(CCOc2ccc(B(O)O)c(F)c2)c1 [II-22] | 10 to 1000 nM
7 | OB(O)c1csc2cc(Cl)ccc12 [II-24] | 10 to 100 nM
8 | O=C1c2cc(B(O)O)ccc2CC1Cc1ccccc1 (stereo not drawn) [II-25] | < 10 nM
9 | O=C1c2ccc(B(O)O)cc2CC1Cc1ccccc1 (stereo not drawn) [II-29] | < 10 nM
10 | OB(O)c1ccc2c(c1)Cc1ccccc1-2 [II-30] | 10 to 100 nM
11 | OB(O)c1ccc2sc3ccccc3c2c1 [II-31] | 10 to 1000 nM
12 | Nc1ccc(CCOc2ccc(B(O)O)c(F)c2)cc1 [II-35] | < 10 nM
13 | OB(O)c1ccc(-c2nc3ccccc3s2)cc1 [II-36] | > 1000 nM
14 | Nc1cccc(CCOc2ccc(B(O)O)c(F)c2)c1 [II-37] | < 10 nM
15 | COc1cccc2c(C(O)O)coc12 [II-38] | > 1000 nM
16 | Cn1c(-c2ccc(B(O)O)cc2)nc2ccccc21 [II-41] | > 1000 nM
17 | OB(O)c1ccc(COCc2ccccc2)c(Cl)c1 [II-43] | < 10 nM
18 | O=C(CCc1ccccc1)c1ccc(B(O)O)c(F)c1 [II-44] | < 10 nM
19 | OB(O)c1ccc(COCc2cc(Cl)cc(Cl)c2)cc1F [II-48] | < 10 nM
20 | OB(O)c1ccc2sccc2c1 [II-49] | 10 to 1000 nM
21 | CCOc1ccc(CCOc2ccc(B(O)O)c(F)c2)cc1 [II-50] | < 10 nM
22 | OB(O)c1ccc(OCCc2ccc(C(F)(F)F)cc2)cc1F [II-52] | < 10 nM
23 | OB(O)c1ccc(OCCc2cccc(C(F)(F)F)c2)cc1F [II-53] | < 10 nM
24 | CCCCB(Oc1cccc2cccnc12)c1ccc(Oc2ccccc2)cc1 [II-55] | < 10 nM
25 | OB(O)c1ccc(OCCc2ccccc2)c(Cl)c1 [II-57] | < 10 nM
26 | Cc1sc2ccccc2c1B(O)O [II-58] | > 1000 nM
27 | OB(O)c1ccc(-c2ccco2)cc1 [II-59] | 10 to 100 nM

Row | Compound | Ki
28 | OB(O)c1ccc(C(OCc2ccccc2)c2ccccc2)cc1 (stereo not drawn) [II-63] | 10 to 1000 nM
29 | Cc1ccc2scc(B(O)O)c2c1 [II-65] | 10 to 1000 nM
30 | OB(c1ccccc1)c1ccc(Oc2ccccc2)cc1 [II-66] | 10 to 100 nM
31 | OB(O)c1ccc2scc(COc3ccccc3)c2c1 [II-67] | > 1000 nM
32 | OB(O)c1ccc(CCCc2ccccc2)cc1 [II-68] | < 10 nM
33 | OB(O)c1ccc(COCc2cccc(C(F)(F)F)c2)cc1F [II-72] | < 10 nM
34 | OB(O)c1ccc2sc(COc3ccccc3)cc2c1 [II-73] | < 10 nM
35 | OB(O)c1ccc(COCc2ccccc2C(F)(F)F)cc1F [II-74] | < 10 nM
36 | O=C(CCCc1ccc(B(O)O)cc1)c1ccccc1 [II-76] | < 10 nM
37 | OB(O)c1ccc(-c2cnco2)cc1 [II-77] | 10 to 100 nM
38 | CN(C)c1cccc(Oc2ccc(B(O)O)cc2)c1 [II-78] | < 10 nM
39 | [O-][S+](Cc1ccccc1)Cc1ccc(B(O)O)c(F)c1 (stereo not drawn) [II-81] | 10 to 1000 nM
40 | OB(O)c1ccc(Cc2ccccc2)cc1 [II-82] | < 10 nM
41 | OB(O)c1ccc(C(O)c2ccccc2)cc1 (stereo not drawn) [II-84] | 10 to 100 nM
42 | CNc1cc(B(O)O)cc(C(=O)O)c1 [II-87] | > 1000 nM
43 | CN(C)c1cc(B(O)O)cc(C(=O)O)c1 [II-88] | > 1000 nM
44 | OB(O)c1ccc(CN2CCc3ccccc32)cc1F [II-91] | < 10 nM
45 | OB(O)c1ccc(OCCC2CCCCC2)cc1F [II-92] | < 10 nM
46 | OB(O)c1ccc2c(c1)CCC(OCc1ccccc1)C2 (stereo not drawn) [II-95] | < 10 nM
47 | CN(Cc1ccccc1)[C@H](COc1ccc(B(O)O)c(F)c1)Cc1ccccc1 [II-97] | 10 to 1000 nM
48 | CN(C)[C@H](COc1ccc(B(O)O)c(F)c1)Cc1ccccc1 [II-98] | > 1000 nM
49 | OB(O)Cc1ccc(-c2ccccc2)cc1 [II-99] | > 1000 nM
50 | OB(O)c1ccc(COCC23CC4CC(CC(C4)C2)C3)cc1 [II-101] | 10 to 100 nM
51 | OB(O)c1ccc(COCC2CCCCO2)cc1 (stereo not drawn) [II-102] | 10 to 100 nM
52 | CN(C)[C@@H](COc1ccc(B(O)O)c(F)c1)Cc1ccccc1 [II-103] | > 1000 nM
53 | OB(O)c1ccc2oc(COc3ccccc3)cc2c1 [II-104] | < 10 nM
54 | CN(Cc1ccccc1)[C@@H](COc1ccc(B(O)O)c(F)c1)Cc1ccccc1 [II-106] | 10 to 1000 nM

Second part, the compound after the results:

Row | Ki | Compound
55 | 10 to 100 nM | O=C(c1ccccc1)c1cc2cc(B(O)O)ccc2o1 [II-15]
56 | 10 to 100 nM | OB(O)c1ccc(-c2cccc3ccccc23)cc1F [II-16]
57 | < 10 nM | O=C(CCCCc1ccccc1)Nc1cccc(CCOc2ccc(B(O)O)c(F)c2)c1 [II-19]
58 | 10 to 100 nM | OB(O)c1csc2c(Cl)cccc12 [II-23]
59 | < 10 nM | OB(O)c1ccc(-c2cccc(-c3ccccc3)c2)cc1F [II-26]
60 | < 10 nM | O=C(CCc1ccc(B(O)O)c(F)c1)c1ccccc1 [II-27]
61 | < 10 nM | OB(O)c1ccc(COCc2ccccc2)cc1F [II-28]
62 | > 1000 nM | Cc1ccc(C)n1-c1ccc(B(O)O)cc1 [II-32]
63 | 10 to 100 nM | Cc1cc(B(O)O)ccc1-c1ccccc1 [II-33]
64 | 10 to 100 nM | CC(C)(C)OC(=O)Nc1ccc(CCOc2ccc(B(O)O)c(F)c2)cc1 [II-39]
65 | > 1000 nM | O=[N+]([O-])c1cccc(CCOc2ccc(B(O)O)c(F)c2)c1 [II-40]
66 | 10 to 1000 nM | Cc1nc2cc(B(O)O)ccc2s1 [II-42]
67 | > 1000 nM | Cc1ncc(-c2ccc(B(O)O)cc2)s1 [II-45]
68 | < 10 nM | OB(O)c1ccc(CCCc2ccccc2)cc1F [II-46]
69 | 10 to 1000 nM | OB(O)c1ccc2occc2c1 [II-47]
70 | < 10 nM | COc1cccc(CCOc2ccc(B(O)O)c(F)c2)c1 [II-51]
71 | < 10 nM | c1ccc(CCCB(Oc2cccc3cccnc23)c2ccc(Oc3ccccc3)cc2)cc1 [II-54]
72 | > 1000 nM | Cc1ccc2ccc(B(O)O)c(F)c2n1 [II-60]

Row | Ki | Compound
73 | < 10 nM | OB(O)c1ccc(OCCc2cccc(Cl)c2)cc1F [II-61]
74 | < 10 nM | OB(O)c1ccc(OCCc2ccc(Cl)c(Cl)c2)cc1F [II-62]
75 | > 1000 nM | OB(O)c1ccc(-c2nc3ccccc3[nH]2)cc1 [II-64]
76 | 10 to 1000 nM | OB(O)c1ccc(OCCN2CCCCC2)cc1F [II-69]
77 | < 10 nM | OB(O)c1ccc(COCc2ccc(C(F)(F)F)cc2)cc1F [II-71]
78 | < 10 nM | c1ccc(Oc2ccc(B(Oc3cccc4cccnc34)c3ccccc3)cc2)cc1 [II-75]
79 | > 1000 nM | [O-][S+](Cc1ccc(B(O)O)c(F)c1)c1ccccc1 (stereo not drawn) [II-79]
80 | > 1000 nM | O=S(=O)(Cc1ccccc1)Cc1ccc(B(O)O)c(F)c1 [II-80]
81 | > 1000 nM | OB(c1ccccc1)c1ccccc1 [II-83]
82 | < 10 nM | OB(O)c1ccc(Oc2cccc(F)c2)c(F)c1 [II-85]
83 | < 10 nM | C[N+]12CC(=O)O[B-]1(c1ccc(-c3cccc(F)c3)cc1F)OC(=O)C2 (stereo not drawn) [II-86]
84 | 10 to 100 nM | CN(Cc1ccccc1)Cc1ccc(B(O)O)c(F)c1 [II-90]
85 | 10 to 100 nM | OB(O)c1ccc(COC2C3CC4CC(C3)CC2C4)cc1 (stereo not drawn) [II-93]
86 | 10 to 100 nM | OB(O)c1ccc(COCc2ccccc2-c2ccccc2)cc1 [II-94]
87 | 10 to 100 nM | O=C(N[C@H](COc1ccc(B(O)O)c(F)c1)Cc1ccccc1)c1ccccc1 [II-96]
88 | 10 to 100 nM | OB(O)c1ccc(COCC2CCCCC2)cc1 [II-100]
89 | 10 to 1000 nM | O=C(N[C@@H](COc1ccc(B(O)O)c(F)c1)Cc1ccccc1)c1ccccc1 [II-105]
90 | 10 to 100 nM | CC(C)(C)OC(=O)N1CCC[C@H]1COCc1ccc(B(O)O)cc1 [II-107]
